{
  "source": "patent US20200165194A1",
  "about": "“ADDITIVE COMPOSITION FOR CULTURE MEDIUM, ADDITIVE COMPOUND FOR CULTURE MEDIUM, AND METHOD FOR CULTURE OF CELLS OR TISSUE USING SAME” (NISSAN CHEMICAL CORPORATION, priority 2017, published 2020)",
  "experiment_in_all_cases": "Various human cancer cells-1, 3D culture, WST-8 (Experimental Example 5)",
  "type_in_all_cases": "cell-based",
  "key": {"[1]": {"test_system": "human uterus cervix cancer-derived cell line HeLa", "settings": "4 days", "source_text": "(§1) Various human-derived cancer cells were precultured (single layer culture) in respective media shown below. Human uterus cervix cancer-derived cell line HeLa (manufactured by American Type Culture Collection (hereinafter indicated as ATCC), 10% fetal bovine serum (FBS, manufactured by Corning)-containing Dulbecco's Modified Eagle's Medium (hereinafter abbreviated as DMEM) (manufactured by Wako Pure Chemical Industries, Ltd.)), human malignant melanoma-derived cell line A375 (manufactured by ATCC, 10% FBS-containing DMEM), human epithelial-like cell cancer-derived cell line A431 (manufactured by ATCC, 10% FBS and 1% MEM non-essential amino acid solution (MEM Non-Essential Amino Acids solution (hereinafter abbreviated as NEAA) (manufactured by Wako Pure Chemical Industries, Ltd.))-containing Eagle's Minimum Essential Medium (hereinafter abbreviated as EMEM) (manufactured by Wako Pure Chemical Industries, Ltd.)), human stomach adenocarcinoma-derived cell line AGS (manufactured by DS PHARMA BIO MEDICAL, 10% FBS-containing Ham's F-12 (manufactured by Wako Pure Chemical Industries, Ltd.)), human prostate cancer-derived cell line LNCaP clone FGC (manufactured by ATCC, 10% FBS-containing RPMI1640 (manufactured by Wako Pure Chemical Industries, Ltd.)), human colon adenocarcinoma-derived cell line HCT116 (manufactured by DS PHARMA BIO MEDICAL, 10% FBS-containing McCoy's 5A Medium (manufactured by Sigma-Aldrich)), human alveolar basal epithelial adenocarcinoma-derived cell line A549 (manufactured by DS PHARMA BIO MEDICAL, 10% FBS-containing DMEM), human prostate cancer-derived cell DU145 (manufactured by ATCC, 10% FBS-containing EMEM). The above-mentioned cells in the logarithmic growth phase were washed with PBS, a 0.25 w/v % trypsin-1 mmol/L EDTA (ethylenediaminetetraacetic acid) solution (manufactured by Wako Pure Chemical Industries, Ltd.) was added, and adherent cells were detached by incubating at 37° C. for 1-5 min. Each medium was added and the mixture was centrifuged. After resuspension in the same medium, each cell was recovered.\n(§2) The aforementioned various cells were suspended in respective deacylated gellan gum-containing or not containing media (deacylated gellan gum concentration was 0.015 w/v %, and 0.020 w/v % for RPMI1640 alone), and seeded in a 96 well low attachment U-bottom plate (manufactured by Corning, deacylated gellan gum-free medium), or a low attachment flat bottom plate (manufactured by Corning, deacylated gellan gum-containing medium) at a cell concentration of 1000-12000 cells/135 μL/well (all 3D culture). After static culture overnight in 37° C., 5% CO2 incubator, a DMSO solution of the compound to be used in the present invention was added to each medium at a final concentration of 5 μM or 10 μM. The amount of each compound solution to be added was 15 μL/well. As a control, a DMSO solution dissolved in a medium was added (DMSO final concentration 0.1%). After continuously culturing in an incubator at 37° C., 5% CO2 for 4 days, WST-8 solution (manufactured by DOJINDO LABORATORIES) was added at 15 μL/well, and the mixture was reacted in the same incubator for 1-2 hr. […] When compared with the compound no-addition (control), one showing a value of not more than 119% as -, one showing a value of not less than 120% as ◯, and one showing a value of not less than 150% as ⊚ are shown in the tenth table."}, "[2]": {"test_system": "human prostate cancer-derived cell DU145", "settings": "4 days; for viability at 5 µM / viability at 10 µM: Homo sapiens, DU-145, 96 h, read-out: number of viable cells, relative value to control (100%)", "source_text": "as §1, §2"}, "[3]": {"test_system": "human colon adenocarcinoma-derived cell line HCT116", "settings": "4 days", "source_text": "as §1, §2"}, "[4]": {"test_system": "human stomach adenocarcinoma-derived cell line AGS", "settings": "4 days; for viability at 5 µM / viability at 10 µM: Homo sapiens, 96 h, read-out: number of viable cells, relative value to control (100%)", "source_text": "as §1, §2"}, "[5]": {"test_system": "human epithelial-like cell cancer-derived cell line A431", "settings": "4 days", "source_text": "as §1, §2"}, "[6]": {"test_system": "human malignant melanoma-derived cell line A375", "settings": "4 days; for viability at 5 µM / viability at 10 µM: Homo sapiens, A-375, 96 h, read-out: number of viable cells, relative value to control (100%)", "source_text": "as §1, §2"}, "[7]": {"test_system": "human prostate cancer-derived cell line LNCaP clone FGC", "settings": "4 days", "source_text": "as §1, §2"}, "[8]": {"test_system": "human alveolar basal epithelial adenocarcinoma-derived cell line A549", "settings": "4 days; for viability at 5 µM / viability at 10 µM: Homo sapiens, A549, 96 h, read-out: number of viable cells, relative value to control (100%)", "source_text": "as §1, §2"}, "[9]": {"settings": "low attachment U-bottom plate (gellan gum-free), 5 μM"}, "[10]": {"settings": "low attachment U-bottom plate (gellan gum-free), 10 μM"}, "[11]": {"settings": "low attachment flat bottom plate (gellan gum medium), 5 μM"}, "[12]": {"settings": "low attachment flat bottom plate (gellan gum medium), 10 μM"}},
  "note": "Where two headings read alike, the source gives them in different places.",
  "data": [
    {"smiles": "CC/C(=N\\NC(=O)Nc1ccccc1)c1ccc(O)c(C)c1O", "note": "[k-1:H-10]", "values": [
      {"measurement": "viability at 5 µM", "setting": "[1]; Homo sapiens, 96 h, low attachment U-bottom plate (gellan gum-free), 5 μM, read-out: number of viable cells, relative value to control (100%)", "result": "< 119", "unit": "%"},
      {"measurement": "viability at 10 µM", "setting": "[1]; Homo sapiens, 96 h, low attachment U-bottom plate (gellan gum-free), 10 μM, read-out: number of viable cells, relative value to control (100%)", "result": "< 119", "unit": "%"},
      {"measurement": "viability at 5 µM", "setting": "[2]; [9]", "result": "120 to 150", "unit": "%"},
      {"measurement": "viability at 10 µM", "setting": "[2]; [10]", "result": "< 119", "unit": "%"},
      {"measurement": "viability at 5 µM", "setting": "[2]; [11]", "result": "< 119", "unit": "%"},
      {"measurement": "viability at 10 µM", "setting": "[2]; [12]", "result": "120 to 150", "unit": "%"},
      {"measurement": "viability at 5 µM", "setting": "[3]; Homo sapiens, HCT-116, 96 h, low attachment U-bottom plate (gellan gum-free), 5 μM, read-out: number of viable cells, relative value to control (100%)", "result": "< 119", "unit": "%"},
      {"measurement": "viability at 10 µM", "setting": "[3]; Homo sapiens, HCT-116, 96 h, low attachment U-bottom plate (gellan gum-free), 10 μM, read-out: number of viable cells, relative value to control (100%)", "result": "< 119", "unit": "%"},
      {"measurement": "viability at 5 µM", "setting": "[4]; [9]", "result": "120 to 150", "unit": "%"},
      {"measurement": "viability at 10 µM", "setting": "[4]; [10]", "result": "< 119", "unit": "%"},
      {"measurement": "viability at 5 µM", "setting": "[4]; [11]", "result": "< 119", "unit": "%"},
      {"measurement": "viability at 10 µM", "setting": "[4]; [12]", "result": "< 119", "unit": "%"},
      {"measurement": "viability at 5 µM", "setting": "[5]; Homo sapiens, A-431, 96 h, low attachment U-bottom plate (gellan gum-free), 5 μM, read-out: number of viable cells, relative value to control (100%)", "result": "< 119", "unit": "%"},
      {"measurement": "viability at 10 µM", "setting": "[5]; Homo sapiens, A-431, 96 h, low attachment U-bottom plate (gellan gum-free), 10 μM, read-out: number of viable cells, relative value to control (100%)", "result": "< 119", "unit": "%"},
      {"measurement": "viability at 5 µM", "setting": "[6]; [9]", "result": "< 119", "unit": "%"},
      {"measurement": "viability at 10 µM", "setting": "[6]; [10]", "result": "120 to 150", "unit": "%"},
      {"measurement": "viability at 5 µM", "setting": "[6]; [11]", "result": "< 119", "unit": "%"},
      {"measurement": "viability at 10 µM", "setting": "[6]; [12]", "result": "< 119", "unit": "%"},
      {"measurement": "viability at 5 µM", "setting": "[7]; Homo sapiens, LNCaP-Clone-FGC, 96 h, low attachment U-bottom plate (gellan gum-free), 5 μM, read-out: number of viable cells, relative value to control (100%)", "result": "120 to 150", "unit": "%"},
      {"measurement": "viability at 5 µM", "setting": "[7]; Homo sapiens, LNCaP-Clone-FGC, 96 h, low attachment flat bottom plate (gellan gum medium), 5 μM, read-out: number of viable cells, relative value to control (100%)", "result": "< 119", "unit": "%"},
      {"measurement": "viability at 10 µM", "setting": "[7]; Homo sapiens, LNCaP-Clone-FGC, 96 h, low attachment flat bottom plate (gellan gum medium), 10 μM, read-out: number of viable cells, relative value to control (100%)", "result": "< 119", "unit": "%"},
      {"measurement": "number of viable cells, relative value to control (100%)", "setting": "[7]; [10]", "result": "⊙"},
      {"measurement": "viability at 5 µM", "setting": "[8]; [9]", "result": "< 119", "unit": "%"},
      {"measurement": "viability at 10 µM", "setting": "[8]; [10]", "result": "< 119", "unit": "%"},
      {"measurement": "viability at 5 µM", "setting": "[8]; [11]", "result": "120 to 150", "unit": "%"},
      {"measurement": "viability at 10 µM", "setting": "[8]; [12]", "result": "120 to 150", "unit": "%"}
    ]},
    {"smiles": "CCC(=NNC(=O)C(CC)Nc1ccccc1)c1ccc(O)c(C)c1O", "note": "(stereo not drawn) [k-1:H-7]", "values": [
      {"measurement": "number of viable cells, relative value to control (100%)", "setting": "[1]; [12]", "result": "◯ (one showing a value of not less than 120% as ◯)"},
      {"measurement": "number of viable cells, relative value to control (100%)", "setting": "[2]; [9]", "result": "◯ (one showing a value of not less than 120% as ◯)"},
      {"measurement": "number of viable cells, relative value to control (100%)", "setting": "[2]; [10]", "result": "⊙"},
      {"measurement": "number of viable cells, relative value to control (100%)", "setting": "[2]; [11]", "result": "⊙"},
      {"measurement": "number of viable cells, relative value to control (100%)", "setting": "[2]; [12]", "result": "⊙"},
      {"measurement": "number of viable cells, relative value to control (100%)", "setting": "[3]; [10]", "result": "◯ (one showing a value of not less than 120% as ◯)"},
      {"measurement": "number of viable cells, relative value to control (100%)", "setting": "[3]; [11]", "result": "◯ (one showing a value of not less than 120% as ◯)"},
      {"measurement": "number of viable cells, relative value to control (100%)", "setting": "[3]; [12]", "result": "⊙"},
      {"measurement": "number of viable cells, relative value to control (100%)", "setting": "[4]; [9]", "result": "◯ (one showing a value of not less than 120% as ◯)"},
      {"measurement": "number of viable cells, relative value to control (100%)", "setting": "[4]; [10]", "result": "◯ (one showing a value of not less than 120% as ◯)"},
      {"measurement": "number of viable cells, relative value to control (100%)", "setting": "[4]; [12]", "result": "◯ (one showing a value of not less than 120% as ◯)"},
      {"measurement": "number of viable cells, relative value to control (100%)", "setting": "[5]; [9]", "result": "⊙"},
      {"measurement": "number of viable cells, relative value to control (100%)", "setting": "[5]; [10]", "result": "⊙"},
      {"measurement": "number of viable cells, relative value to control (100%)", "setting": "[5]; [11]", "result": "⊙"},
      {"measurement": "number of viable cells, relative value to control (100%)", "setting": "[5]; [12]", "result": "⊙"},
      {"measurement": "number of viable cells, relative value to control (100%)", "setting": "[6]; [10]", "result": "◯ (one showing a value of not less than 120% as ◯)"},
      {"measurement": "number of viable cells, relative value to control (100%)", "setting": "[6]; [11]", "result": "◯ (one showing a value of not less than 120% as ◯)"},
      {"measurement": "number of viable cells, relative value to control (100%)", "setting": "[7]; [9]", "result": "⊙"},
      {"measurement": "number of viable cells, relative value to control (100%)", "setting": "[7]; [10]", "result": "◯ (one showing a value of not less than 120% as ◯)"},
      {"measurement": "number of viable cells, relative value to control (100%)", "setting": "[8]; [10]", "result": "◯ (one showing a value of not less than 120% as ◯)"},
      {"measurement": "number of viable cells, relative value to control (100%)", "setting": "[8]; [11]", "result": "⊙"},
      {"measurement": "number of viable cells, relative value to control (100%)", "setting": "[8]; [12]", "result": "⊙"}
    ]}
  ]
}
